# Several values for one entry are separate records, joined by “and”; a condition that tells them apart may be missing. Equal values may be shown once. Read-outs that look alike come from different tables or passages of the source. Marks after values point to notes of the source that are not given here.
# What was measured:
# [1] = Photocleavage quantum yield / photolytic quantum efficiency calculation
# Text: We compared photolytic quantum efficiency of the widely used PPG of Cou by using the UCNPs as phototransducer.
# [2] = Photolytic molecule experiment: TTAP photolytic reaction in solution under LED, HPLC yield; format: physicochemical
# Experimental: Photolytic molecule experiment: The NIR LED (720 nm), far red LED (650 nm), green LED (530 nm), blue LED (476 nm) and deep blue (455 nm) were used for photolytic reactions. […] Then, the solution was excited with a LED (20 mW/cm^2) at 37° C. After the photolytic reaction, the raw product was dried and re-dissolved in CH3CN/H2O=(2/1, v/v) and HPLC was used to analyze the yield of product.
# [3] = PPGs; from the literature; listed as Py; cited from earlier work
# [4] = Photophysical parameters of Sen and PPGs (UV-vis absorption, emission, energy levels); format: physicochemical; parameters: λabs maximum absorption wavelength / λem maximum emission wavelength: unit not given here
# Experimental: Characterization: ^1H NMR spectra were recorded with a Bruker 500 MHz spectrometer. UV-Vis spectra were recorded on an Agilent Cary-5 spectrophotometer. Steady-state fluorescence spectra were measured on a HITACHI F-7000 spectrometer. […] The sample for TEM measurement was prepared by dropping the solution onto a carbon-coated copper grid following negative staining with 2.0% (w/v) phosphotungstic acid. The particle size and size distribution were measured by using dynamic light scattering (DLS) on a Malvern Nano-ZS particle size analyzer, excitation wavelength 532 nm. All samples in the Stern-Volmer quenching plots experiments were deaerated with argon for ca. 15 min before measurement and the gas flow was maintained during the measurements. For the TTA upconversion spectra measurement, the diode pumped solid-state laser (650 nm, continues wave, CW, Hi-Teach company, China) was used as the excitation light source and a modified spectrofluorometer was used to record the upconversion spectra. For the prodrug photolytic experiment, an All LED (Mightex Company) was used as the excitation light source.
# From the absorption and emission spectra of Sen and PPGs, the triplet and singlet energy levels of PPG and Sen can be calculated. The maximum emission wavelength of phosphorescence is the triplet excited state energy level (T1) of the Sen. The maximum emission wavelength of fluorescence is the singlet excited state energy level (S1) of the PPGs. Moreover, according to the literature, we know the triplet excited energy levels of PPGs. The detail information is always in […]
# [5] = TTA upconversion quantum yield; format: physicochemical
# Experimental: The upconversion quantum yields (ΦUC): The upconversion quantum yields were calculated with the eq 3, where ΦUC and Φstd stand for upconversion luminescence quantum yield of sample TTA-UC and fluorescence quantum yield of reference compounds, respectively. Aunk and Astd stand for absorbance of the TTA-UC and reference compound, respectively. Iunk and Istd stand for integrated upconversion luminescence intensity of the TTA-UC and fluorescence intensity of reference compounds, respectively. ηunk and μstd stand for the refractive index of water. The equation is multiplied by a factor of 2 to make the maximum quantum yield of two unified emitters.
# The upconversion experiments were deaerated with argon for ca. 15 min before measurement and the argon gas flow was kept during the measurement.
# [6] = Stern-Volmer photoluminescence quenching of photosensitizers by PPGs-X; format: physicochemical
# Experimental: The Stern-Volmer quenching plots experiment (ksv): photoluminescence of photosensitizers (PtTNP, PdTPBP, PtOEP, and Ir(ppy)3) in the presence of different concentrations of PPGs (BDP, perylene, anthracene and coumarin). The mixed solutions were degassed for at least 15 min with Ar in toluene. The ksv constants were calculated with eq 1, where 1o and It stand for photoluminescence intensity of photosensitizer in the absence of PPGs-X and the photoluminescence intensity of photosensitizer in the presence PPGs-X. Q is the concentration of PPGs-X. Biomolecular quenching constants (kq) were calculated by eq2. The Tr is the phosphorescence lifetime of photosensitizer in argon.
smiles,measurement,setting,value
CC(=O)OCc1ccc2c3cccc4cccc(c5cccc1c52)c43 [compound 8],increase of ηp (TTAP) over ηp (direct),[1]; PdTPBP,282%
same,ε2 × Φp: ε (Sen) × Φp (PPGs); ηp (TTAP),[1]; PdTPBP as sensitizer,10230 ^g
same,ε2 × Φp: ε (Sen) × Φp (PPGs); ηp (TTAP),"[1]; PdTPBP as sensitizer, listed as Py",10230
same,increase of ηp (TTAP) over ηp (direct),[1]; PtOEP,179%
same,ε2 × Φp: ε (Sen) × Φp (PPGs); ηp (TTAP),[1]; PtOEP as sensitizer,6510 ^j
same,ε2 × Φp: ε (Sen) × Φp (PPGs); ηp (TTAP),"[1]; PtOEP as sensitizer, listed as Py",6510
same,increase of ηp (TTAP) over ηp (direct),[1]; PtTNP,342%
same,ε2 × Φp: ε (Sen) × Φp (PPGs); ηp (TTAP),[1]; PtTNP as photosensitizer,12400^h
same,ε2 × Φp: ε (Sen) × Φp (PPGs); ηp (TTAP),"[1]; PtTNP as photosensitizer, listed as Py",12400
same,ε1 × Φp: ε (PPGs) × Φp (PPGs); ηp (direct),[1]; direct short wavelength illumination,3627
same,photolytic yield,[2],70%
same,Yield (HPLC) of photolytic reaction,"[2]; PdTPBP, air, room light, 60 min",No reaction
same,Yield (HPLC) of photolytic reaction,"[2]; PdTPBP, argon, room light, 60 min",No reaction
same,Yield (HPLC) of photolytic reaction,"[2]; PdTPBP, dark, argon, 1 h",No reaction
same,photolytic yield,"[2]; PdTPBP, far-red LED light (20 mW/cm^2, 650 nm)",87% and 87.1%
same,Yield (HPLC) of photolytic reaction,"[2]; PdTPBP, light, air, 1 h",No reaction
same,Yield (HPLC) of photolytic reaction,"[2]; PdTPBP, light, argon, 1 h",87.1%
same,photolytic yield,"[2]; PtTNP, NIR LED light (20 mW/cm^2, 720 nm, 1 h)",14.7%
same,Yield (HPLC) of photolytic reaction,"[2]; PtTNP, dark, argon, 1 h",No reaction
same,Yield (HPLC) of photolytic reaction,"[2]; PtTNP, light, air, 1 h",No reaction
same,Yield (HPLC) of photolytic reaction,"[2]; PtTNP, light, argon, 1 h",14.7%
same,Yield (HPLC) of photolytic reaction,"[2]; compound only (no PdTPBP), far red light, argon, 1 h",No reaction
same,Yield (HPLC) of photolytic reaction,"[2]; compound only (no PtTNP), NIR light, argon, 1 h",No reaction
same,Yield (HPLC) of photolytic reaction,"[2]; compound only, air, blue light (445 nm, 20 mW/cm^2), 60 min",59%
same,Yield (HPLC) of photolytic reaction,"[2]; compound only, air, dark, 60 min",No reaction
same,Yield (HPLC) of photolytic reaction,"[2]; compound only, air, room light, 60 min",No reaction
same,T1 triplet excited state,[3],1.52 ^m eV and 1.52 eV
same,2 × T1 − S1,[4]; PPGs,0.26 eV
same,S1 singlet excited state,"[4]; PPGs, from maximum fluorescence emission",2.78 eV
same,λabs maximum absorption wavelength,"[4]; in toluene, 10 μM",440
same,λem maximum emission wavelength,"[4]; in toluene, 10 μM",445
same,ξ molar extinction coefficient,"[4]; in toluene, 10 μM",4.0 10^4 M^−1 cm^−1
same,upconversion quantum yield,[5]; paired with PdTPBP,5.8%
same,upconversion quantum yield,[5]; paired with PtOEP,9.5%
same,upconversion quantum yield,[5]; paired with PtTNP,0.05%
same,quenching of the photoluminescence of PdTPBP,[6]; PdTPBP,obvious quenching effects
same,ksv (bimolecular quenching constant),[6]; PdTPBP as sensitizer,1.09 × 10^9 g M^−1S^−1
same,ksv Stern-Volmer quenching constant,[6]; PdTPBP as sensitizer,243000 g/M
same,quenching of the photoluminescence of PtOEP,[6]; PtOEP,significant quenching
same,ksv (bimolecular quenching constant),[6]; PtOEP as sensitizer,2.9 × 10^9 j M^−1S^−1
same,ksv Stern-Volmer quenching constant,[6]; PtOEP as sensitizer,262000 J/M
same,quenching of the photoluminescence of PtTNP,[6]; PtTNP,quenching effect

# Reference: patent publication US12599666B2, “Photolytic compounds and triplet-triplet annihilation mediated photolysis” (University of Massachusetts, priority 2019, dated 2026)
